From US20050180947A1, “Novel application of vaccination against TNF-alpha” (priority 2002, published 2005)

Legend:
[1] = system: rats with sciatic nerve constriction injury (CCI); settings: spinal administration prior to CCI; cited from earlier work
[2] = system: Male Sprauge-Dawley rats, partial sciatic nerve ligation (PSNI model); assay: Thermal hyperalgesia (plantar test, hind paw withdrawal latency) in the partial sciatic nerve ligation (PSNI/PSNL) model; type: in vivo, rat
Source text: Male Sprauge-Dawley rats (200-600 g) were used in all the experiments. The rats were permitted to acclimate 1 week before use in the experiments. The rats were marked with a speed marker on their tails and normally kept in groups of 2-3 per cage pre- and postoperatively. They were housed in clear plastic cages with solid floors covered with sawdust in a normal day/night cycle. Water and food were supplied ad libitum.
The method of partial sciatic nerve injury is developed by Seltzer. Before surgery, the rats were shaved and washed with iodine solution (Iobac vet.) on the surgical area. The left sciatic nerve was exposed at high-thigh level by making a 2-3 cm incision in the skin. The skin was then freed from the connective tissue surrounding the incision in order to assure free movement of the leg after skin stapling. Using blunt dissection through the biceps femoris, the nerve was exposed and carefully freed from surrounding connective tissue at a site near the trochanter just below the point at which the posterior biceps semitendinosus nerve branches off the common sciatic nerve. Using a small pincette slid under the nerve, the nerve was gently lifted up and fixed. An 8/0 Ethilon suture was inserted into the nerve and tightly ligated so that the dorsal 1/3-1/2 of the nerve thickness was trapped in the ligature. The muscle was closed with 2-3 muscle sutures (4/0 vicryl), and the skin closed with 3-4 skin staples.
Plantar test (Ugo Basile) was used in this study to asses the nociceptive response.
The rats were placed in the clear plastic chamber (18 cm×29 cm×12.5 cm) allowed to acclimate to the new environment for about 5 min. Before testing. During this time period the rat was showing exploratory behaviour e.g. standing on its hind leg. When the rat had been acclimated, it stood quietly with occasional bouts of grooming. The radiant heat score beneath the class floor was pointed at the planter hind paw with help from the white sight marks engraved on the top of the I.R vessel.
The infrared (IR) source was then started and the withdrawal latency recorded.
When the rat felt pain and withdrew its paw, the sudden drop in radiation led to a automatic stop of the IR source and the time counter and the withdrawal latency could be determined to the nearest 0.1 sec.
The withdrawal latency was every time tested 5 times with intervals of 5 min. The average of the 5 measurements were then used as the withdrawal latency of the specific rat.
Rats, which were undergoing PSNL, were only tested on the operated left leg. 3 consecutive days before the operation, the withdrawal latency of the left leg was measured using the average of the 3 days as the basic withdrawal latency. The rat was then tested postoperatively for more days.
The difference score, expressed as percent reduction from the basic level to the postoperative level measurement, was used as an index for hyperalgesia: [formula] (pom: postoperative measurement)
Group averages appear with the standard error of the mean. The significance level of difference between means of various groups at certain postoperative times was examined by Student's t-test. The difference between the same group but at different days was examined by ANOVA.

[3] = Soluble expression of TNF-α variants in E. coli; type: physicochemical
Source text: Insertion of the PADRE epitope (SEQ ID NO: 4) into loop 3 in position Gly108-Ala109 is a promising approach to prepare TNF-α variants with a structure closely resembling the native TNF-α molecule. It has been deduced from the TNF-α crystal structure that a TH epitope inserted directly into this position will not have any neighbouring amino acid residues in close proximity to interact with.

[4] = bacterial host cells grown at 37° C.

Clc1cccc(Cl)c1N=C1NCCN1 [clonidine]
delay in onset of thermal hyperestesia compared to control groups [1]: 3 days | difference score in percent between the basic level and the postoperative measurement ([2]; clonidine 0.6 mg/kg once at day 4 postoperatively after testing, day 5): −0.2±8.5% | difference score in percent between the basic level and the postoperative measurement ([2]; clonidine 0.6 mg/kg orally started 2 hours pre PSNI, repeated to day 2, day 2): 2.6±3.1%

O=C1CCC(N2C(=O)c3ccccc3C2=O)C(=O)N1 (stereo not shown) [thalidomide]
difference score in percent between the basic level and the postoperative measurement ([2]; thalidomide 50 mg/kg orally daily from 2 h pre-operation, day 2): 33.3±4.1% | difference score in percent between the basic level and the postoperative measurement ([2]; thalidomide 50 mg/kg orally daily, day 4): 33.9±5.9% | difference score in percent between the basic level and the postoperative measurement ([2]; thalidomide 50 mg/kg orally daily, day 6): 40.5±3.2% | difference score in percent between the basic level and the postoperative measurement ([2]; thalidomide 50 mg/kg orally daily, day 8): 41.3±3.4% | difference score in percent between the basic level and the postoperative measurement ([2]; thalidomide 50 mg/kg orally daily, day 10): 30.6±5.3% | difference score in percent between the basic level and the postoperative measurement ([2]; thalidomide 100 mg/kg orally daily from 2 h pre-operation, day 2): 22.0±7.2% | difference score in percent between the basic level and the postoperative measurement ([2]; thalidomide 100 mg/kg orally daily, day 4): 32.4±6.4% | difference score in percent between the basic level and the postoperative measurement ([2]; thalidomide 100 mg/kg orally daily, day 6): 38.0±4.1% | difference score in percent between the basic level and the postoperative measurement ([2]; thalidomide 100 mg/kg orally daily, day 8): 34.1±5.4% | difference score in percent between the basic level and the postoperative measurement ([2]; thalidomide 100 mg/kg orally daily, day 10): 29.8±4.6%

TNF_T0: three TNFα monomers linked by two GlyGlyGly linkers; SEQ ID NO: 22 in PCT/DK02/00764
expression form in E. coli / bacterial cells [3]: soluble protein

infliximab
difference score (basic level vs postoperative withdrawal latency) versus saline control ([2]; infliximab 5 mg/kg i.v. 2 hours prior to PSNL, days 2, 4, 6 and 7 postoperatively): No significant differences | difference score in percent between the basic level and the postoperative measurement ([2]; infliximab 5 μl (10 mg/ml) icv at days 2, 3 and 4, day 3): 39.2±5.6% | difference score in percent between the basic level and the postoperative measurement ([2]; infliximab 5 μl (10 mg/ml) icv at days 2, 3 and 4, day 4): 43.4±3.8% | difference score in percent between the basic level and the postoperative measurement ([2]; infliximab 5 μl (10 mg/ml) icv at days 2, 3 and 4, day 6): 47.2±4.0% | difference score in percent between the basic level and the postoperative measurement ([2]; infliximab 5 μl (10 mg/ml) icv at days 2, 3 and 4, day 8): 30.6±6.1% | nociceptive threshold compared to the control group ([2]; infliximab 5 μl (10 mg/ml) icv at days 2, 3 and 4 postoperatively): no significant difference | difference score in percent between the basic level and the postoperative measurement ([2]; infliximab 5 μl (10 mg/ml) icv at days 2, 3 and 4 postoperatively, day 2): 41.3±4.4% | difference score in percent between the basic level and the postoperative measurement ([2]; infliximab (10 mg/ml) icv continuously 0.5 μl/h by osmotic pump started day 3 preoperatively, day 2): 34.2±5.4% | difference score in percent between the basic level and the postoperative measurement ([2]; infliximab (10 mg/ml) icv continuously 0.5 μl/h started day 3 preoperatively, day 4): 34.6±5.4% | difference score in percent between the basic level and the postoperative measurement ([2]; infliximab (10 mg/ml) icv continuously 0.5 μl/h started day 3 preoperatively, day 6): 30.3±8.2% | difference score in percent between the basic level and the postoperative measurement ([2]; infliximab (10 mg/ml) icv continuously 0.5 μl/h started day 3 preoperatively, day 8): 27.5±5.2%

B1: TNF34: human TNF-α variant, PADRE epitope inserted into loop 3 at Gly108-Ala109; SEQ ID NO: 18 in PCT/DK02/00764 (protein)
chain: VRSSSRTPSDKPVAHVVANPQAEGQLQWLNRRANALLANGVELRDNQLVVPSEGLYLIYSQVLFKGQGCPSTHVLLTHTISRIAVSYQTKVNLLSAIKSPCQRETPEGAKFVAAWTLKAAAAEAKPWYEPIYLGGVFQLEKGDRLSAEINRPDYLDFAESGQVYFGIIAL
modifications: hTNF with inserted PADRE
fraction expressed as inclusion bodies [3, 4]: 95% | fraction of the expressed protein soluble in E. coli [3, 4]: approximately 5% | yield of soluble protein from the fermentation ([3]; fermentation temperature 25° C.): ~100%
